Test [1] in a line: Impedance study of corrosion inhibition, equivalent circuit model CPE with Diffusion. Particulars: for IE: impedance, C-steel, 1M HCl, 298 K; for % inhibition from Impedance: summary Table 16, C-steel in 1 M HCl; for % Inhibition from Impedance studies: summary Table 17, C-steel in 1 M HCl. An excerpt: (§1) In an embodiment, the thus formed CuL copper complex can undergo anticorrosion studies by adding the obtained CuL copper complex to hydrochloric acid (for example, at 1M) using a C-steel electrode.
(§2) The % inhibition of Spiro compounds SP34, SP37 and SP311 and their copper complexes for C-steel in hydrochloric acid solution (1M) were computed by Impedance and Polarization studies. The model used for the electrochemical equivalent circuit to fit the impedance for anticorrosion studies of Carbon steel (C-steel) by Spiro inhibitors was CPE with diffusion as shown in FIG. 7.

Test [2] can be described thus: Polarization (Tafel) study of corrosion inhibition. The following applies: for IE: polarization, C-steel, 1M HCl, 298 K; for % inhibition from Tafel: summary Table 16, C-steel in 1 M HCl; for % Inhibition from Tafel plots: summary Table 18, C-steel in 1 M HCl.
Source text: as §1, §2

For the compound `Cc1[nH]nnc1C(=O)[C@H]1[C@H](c2ccc(Cl)cc2Cl)C2CSCN2[C@]12C(=O)Nc1cc(Cl)ccc12` (stereo partly drawn) [SP 34, (3R,6'S,7′R)-6-chloro-7′-(2,4-dichlorophenyl)-6′-(5-methyl-1H-1,2,3-triazole-4-carbonyl)-1′,6′,7′,7a′-tetrahydro-3′H-spiro[indoline-3,5′-pyrrolo[1,2-c]thiazol]-2-one], the IE in test [1] (0.037 mM) was 82.48%; in test [1] (0.075 mM) it was 94.25%; in test [1] (0.112 mM), 97.37%; in test [2] (0.037 mM) it was 90.5%; in test [2] (0.075 mM), 97.1%; in test [2] (0.112 mM), 98.6%. The “% inhibition from Impedance” value in test [1] is 96.97%. Moreover, the “% Inhibition from Impedance studies” value in test [1] was found to be 96.97%. Moreover, the “% inhibition from Tafel” value in test [2] is 98.6%. For the same compound, in test [2], the “% Inhibition from Tafel plots” value was found to be 98.6%.
Take `Cc1[nH]nnc1C(=O)[C@H]1[C@H](c2cccc([N+](=O)[O-])c2)C2CSCN2[C@]12C(=O)Nc1cc(Cl)ccc12` (stereo partly drawn) [SP 37, (3R,6'S,7′R)-6-chloro-6′-(5-methyl-1H-1,2,3-triazole-4-carbonyl)-7′-(3-nitrophenyl)-1′,6′,7′,7a′-tetrahydro-3′H-spiro[indoline-3,5′-pyrrolo[1,2-c]thiazol]-2-one]: the IE in test [1] (0.039 mM) came to 21.25%; in test [1] (0.078 mM), 46.85%; in test [1] (0.117 mM), 56.53%; in test [2] (0.039 mM), 49.0%; in test [2] (0.078 mM), 72.7%; in test [2] (0.117 mM) it was 82.1%. Also, the “% inhibition from Impedance” value in test [1] is 56.53%. In addition, in test [1], the “% Inhibition from Impedance studies” value worked out at 56.53%. Further, the “% inhibition from Tafel” value in test [2] amounted to 82.1%. Also, the “% Inhibition from Tafel plots” value in test [2] is reported as 82.1%.
For the compound `Cc1[nH]nnc1C(=O)[C@H]1[C@H](c2cccc(Br)c2)C2CSCN2[C@]12C(=O)Nc1cc(Cl)ccc12` (stereo partly drawn) [SP 311, (3R,6'S,7′R)-7′-(3-bromophenyl)-6-chloro-6′-(5-methyl-1H-1,2,3-triazole-4-carbonyl)-1′,6′,7′,7a′-tetrahydro-3′H-spiro[indoline-3,5′-pyrrolo[1,2-c]thiazol]-2-one], the IE in test [1] (0.036 mM) was 14.26%; in test [1] (0.073 mM), 8.96%; in test [1] (0.109 mM), 62.89%; in test [2] (0.036 mM), −1.5%; in test [2] (0.073 mM) it was 13.0%; in test [2] (0.109 mM), 81.6%. In addition, the “% inhibition from Impedance” value in test [1] turned out to be 62.89%. Further, the “% Inhibition from Impedance studies” value in test [1] is listed as 62.89%. Further, the “% inhibition from Tafel” value in test [2] turned out to be 81.6%. Besides, in test [2], the “% Inhibition from Tafel plots” value came out at 81.6%.

Values taken from patent US11840545B1, “Spirooxindole-copper complex as novel efficient anticorrosion agent for C-steel” (KING FAISAL UNIVERSITY, priority 2023, dated 2023).
